Molecular target: T1, human cathepsin K (Homo sapiens, UniProt P43235)
T1 construct: The proform of cathepsin K was converted to mature cathepsin K by brief exposure to pH 4; made in house; host or cells: baculovirus; Trichoplusia ni High Five cells (virus raised in Sf-9)
T1 sequence (P43235 115-329): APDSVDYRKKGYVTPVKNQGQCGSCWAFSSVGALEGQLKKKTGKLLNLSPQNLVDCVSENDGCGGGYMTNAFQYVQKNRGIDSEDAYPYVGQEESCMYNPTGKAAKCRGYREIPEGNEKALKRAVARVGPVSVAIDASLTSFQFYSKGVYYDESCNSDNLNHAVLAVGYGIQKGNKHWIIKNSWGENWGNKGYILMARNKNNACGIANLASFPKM
Test: Cathepsin K inhibition assay, human recombinant enzyme, fluorogenic substrate Cbz-Phe-Arg-AMC
Assay type: biochemical
Conditions: Table 1, human cathepsin K; read-out: h Cat K IC50
Method: All assays for cathepsin K were carried out with human and rat recombinant enzyme. Assays for cathepsins S ? V were also carried out with human recombinant enzyme. Assays for human cathepsins B, H, and L were carried out with enzyme, purchased from Athens Research and Technology, Inc., prepared from human liver tissue. […] A stock substrate solution of Cbz-Phe-Arg-AMC was prepared at a concentration of 50 mM in dimethyl sulfoxide. This substrate was diluted into the assay for a final substrate concentration of 10 μM in the rat cathepsin K, human cathepsin K, and human cathepsin B assays; a final substrate concentration of 5 μM in the human cathepsin L assay; and a final substrate concentration of 2 μM in the human cathepsin V assay.
All assays contained 10% dimethyl sulfoxide. […] All assays were conducted at 30° C. Product fluorescence (excitation at 360 nm; emission at 440 nm, (except cathepsin H which used excitation at 340 nm; emission at 420 nm)) was monitored with a PerSeptive Biosystems Cytofluor II fluorescence plate reader. Product progress curves were generated over 2.3 h monitoring the formation of 7-amino-4-methylcoumarin product (or β-naphthalamide for cathepsin H).
Human and rat Cathepsin K:
Two liters of Spodoptera frugiperda (Sf-9) cells (ATCC) were grown in Grace's Supplemented medium (Life Technologies) supplemented with 2 g/L glucose, 10% fetal bovine serum (HyClone) and 0.1% pluronic F-68 (Life Technologies). […] The cells continued to grow for 72 h post-infection, before the virus was harvested by centrifugation at 1400×g for 30 min.
One and one-half liters of Trichoplusia ni (T. ni) High Five (™) cells [JRH Biosciences, Woodland, Calif. […] The cells were grown for 24 h at 28° C., 50 RPM, and 50% dissolved oxygen. […] Media were separated from cells at a rate of 1 L/min using the Centritech 100 ™ continuous-flow centrifuge (DuPont) operating at 200×g.
Protein Purification: Media (human and rat) were filtered through a Whatman 3 filter, and then loaded onto a 25 mL. Poros HS II (26 mm×47 mm) cation exchange column equilibrated in 25 mM sodium acetate at pH 5.5 (equilibration buffer). The column was washed until the absorbance reached the baseline value, and then the protein was eluted with a linear gradient from 0-2 M sodium chloride in the equilibration buffer. Column fractions were analyzed by SDS-PAGE, N-terminal sequencing, and mass spectrometry. Fractions containing the proform of cathepsin K were pooled and frozen at −80° C. The proform was concentrated in an Amicon Centriprep 10 and fractionated with a Superdex 75 column (26 mm×600 mm, Pharmacia) equilibrated in 400 mM sodium chloride, 25 mM sodium acetate at pH 5.5.
Cathepsin K Activation: The proform of cathepsin K was converted to mature cathepsin K by brief exposure to pH 4 in the presence of 5 mM L-cysteine. Typically, 5 mM L-cysteine was added to 10 mL of approximately 1 mg/mL procathepsin K. One mL of this solution was diluted ten-fold into 450 mM sodium acetate at pH 4.0 containing 5 mM L-cysteine. This solution was reacted at 23° C. for 2 min before neutralization with 2 mL, 1.8 M sodium acetate at pH 6.0. The neutralized sample was added to the remaining 9 mL of procathepsin K. The mixture was incubated at 4° C. for 2-3 days. The activated cathepsin K was chromatographed on a Poros HS II column as described above.
Potential inhibitors were evaluated using the progress curve method. Assays were carried out in the presence of variable concentrations of test compound. Reactions were initiated by addition of buffered solutions of inhibitor and substrate to enzyme. Data analysis was conducted according to one of two procedures depending on the appearance of the progress curves in the presence of inhibitors. […] Ki values were calculated from IC50 values using equation 2 assuming a competitive model.

Structure (SMILES)	IC50
CCCC[C@H](NC(=O)O[C@@H]1CN(C(=O)OCc2cccc(-c3ccccc3)c2C)CC1(C)C)C(=O)C(=O)N[C@H](C)c1ccccc1 [Example 54, (2-Methyl[1,1′-biphenyl]-3-yl)methyl (4S)-3,3-dimethyl-4-[({[(1S)-1-(oxo{[(1R)-1-phenylethyl]amino}acetyl)pentyl]amino}carbonyl)oxy]-1-pyrrolidinecarboxylate]	10 to 100 nM
CCCC[C@H](NC(=O)O[C@@H]1CN(S(=O)(=O)c2ccc3c(c2)OCCO3)CC1(C)C)C(=O)C(=O)N[C@H](C)c1ccccc1 [Example 80, (3S)-1-(2,3-Dihydro-1,4-benzodioxin-6-ylsulfonyl)-4,4-dimethylpyrrolidinyl (1S)-1-(oxo{[(1R)-1-phenylethyl]amino}acetyl)pentylcarbamate]	10 to 100 nM
CCCC[C@H](NC(=O)OC1C(=O)OC[C@]1(C)CC)C(=O)C(=O)N[C@H](C)c1ccccc1 (stereo partly drawn) [Example 3, (4S)-4-ethyl-4-methyl-2-oxotetrahydro-3-furanyl (1S)-1-(oxo{[(1R)-1-phenylethyl]amino}acetyl)pentylcarbamate]	1 to 10 nM
CCCCC(NC(=O)O[C@@H]1COCC1(C)C)C(=O)C(=O)N[C@H](C)c1ccccc1 (stereo partly drawn) [Example 83, (3S)-4,4-Dimethyltetrahydro-3-furanyl 1-(oxo{[(1R)-1-phenylethyl]amino}acetyl)pentylcarbamate]	10 to 100 nM
CCCC[C@H](NC(=O)O[C@@H]1CN(C(=O)OCC2CCOC2)CC1(C)C)C(=O)C(=O)N[C@H](C)c1ccccc1 (stereo partly drawn) [Example 49, Tetrahydro-3-furanylmethyl (4S)-3,3-dimethyl-4-[({[(1S)-1-(oxo {[(1R)-1-phenylethyl]amino}acetyl)pentyl]amino}carbonyl)oxy]-1-pyrrolidinecarboxylate]	10 to 100 nM

The next lines start with the values.

IC50	Structure (SMILES)
1 to 10 nM	CCCC[C@H](NC(=O)O[C@@H]1CN(C(=O)c2cc(C(C)(C)C)nn2C)CC1(C)C)C(=O)C(=O)N[C@H](C)c1ccccc1 [Example 14, (3S)-1-[(3-tert-Butyl-1-methyl-1H-pyrazol-5-yl)carbonyl]-4,4-dimethylpyrrolidinyl (1S)-1-(oxo{[(1R)-1-phenylethyl]amino}acetyl)pentylcarbamate]
10 to 100 nM	CCCCC(NC(=O)O[C@@H]1CN(Cc2ccccc2)CC1(C)C)C(=O)C(=O)N[C@H](C)c1ccccc1 (stereo partly drawn) [Example 8, (3S)-1-Benzyl-4,4-dimethylpyrrolidinyl 1-(oxo{[(1R)-1-phenylethyl]amino}acetyl)pentylcarbamate]
10 to 100 nM	CCCC[C@H](NC(=O)O[C@@H]1CN(C(=O)c2cccnc2)CC1(C)C)C(=O)C(=O)N[C@H](C)c1ccccc1 [Example 66, (3S)-4,4-Dimethyl-1-(3-pyridinylcarbonyl)pyrrolidinyl (1S)-1-(oxo{[(1R)-1-phenylethyl]amino}acetyl)pentylcarbamate]
1 to 10 nM	CCCC[C@H](NC(=O)O[C@@H]1CN(C(=O)c2nn(-c3ccccc3)nc2C)CC1(C)C)C(=O)C(=O)N[C@H](C)c1ccccc1 [Example 15, (3S)-4,4-Dimethyl-1-[(5-methyl-2-phenyl-2H-1,2,3-triazol-4-yl)carbonyl]pyrrolidinyl (1S)-1-(oxo{[(1R)-1-phenylethyl]amino}acetyl)pentylcarbamate]
10 to 100 nM	CCCC[C@H](NC(=O)O[C@@H]1CN(C(=O)O[C@H]2CCOC2)CC1(C)C)C(=O)C(=O)N[C@H](C)c1ccccc1 [Example 43, (3S)-Tetrahydro-3-furanyl (4S)-3,3-dimethyl-4-[({[(1S)-1-(oxo{[(1R)-1-phenylethyl]amino}acetyl)pentyl]amino}carbonyl)oxy]-1-pyrrolidinecarboxylate]
1 to 10 nM	CCCC[C@H](NC(=O)O[C@@H]1CN(C(=O)c2ccc3[nH]ccc3c2)CC1(C)C)C(=O)C(=O)N[C@H](C)c1ccccc1 [Example 21, (3S)-1-(1H-Indol-5-ylcarbonyl)-4,4-dimethylpyrrolidinyl (1S)-1-(oxo{[(1R)-1-phenylethyl]amino}acetyl)pentylcarbamate]

Source: patent publication US7402606B2, “Derivatives of 1-(oxoaminoacetyl) pentylcarbamate as cathepsin K inhibitors for the treatment of bone loss” (SmithKline Beecham Corporation, priority 2002, dated 2008)
